Experiment: Pharmacokinetic profile after oral administration in Beagle dogs
Type: in vivo
Conditions: dog, plasma, 10.6 mg/kg, Compound A in Water for Injection
Method: Macrogol Glyceride formulations were orally administered in Beagle dogs as extemporaneous suspension in PBS at a dose of 10.6 mg/kg following the protocol below, by gavage in a volume of 2 mL/kg and bulk formulation by forced introduction into the throat.
The formulations were administered to the animals which had fasted overnight (i.e. for about 16 hours) before treatment, food was allowed again 4 hours after treatment.
Macrogol Glyceride formulations (1) and (2) were orally administered as described above. A wash-out interval between the administration of formulation (1) and of formulations (2) was of at least 1 week.
6 Beagle dogs (3 males and 3 females) of about 10-13 kg of bodyweight and of age 9 to 12 months were used. Animals were weighed fasted before administration and the body weight recorded.
Blood (at least 2.5 ml) was collected from a jugular vein into heparinised tubes before and after dosing, at the following 15 times:
Blood was centrifuged within 15 min at about 2500 g at +4° C. for 10 min. Blood cells were discharged and plasma obtained was divided into 3 aliquots (at least 0.3 mL each). The plasma concentrations of Compound A (free base of Compound A, mesylate) in the unknown dog plasma samples was determined by a High Performance Liquid Chromatography/Mass Spectrometry (HPLC/MS). […]

N#CC(c1ccnc(OCc2ccc(CN3CCOCC3)cc2)n1)c1nc2ccccc2s1 (stereo not shown) [Compound A, 1,3 benzothiazol-2-yl-[2-(4-morpholin-4-ylmethyl-benzyloxy)-pyrimidin-4-yl]-acetonitrile]
bioavailability: < 15%

Source: patent publication US7838522B2, “Benzothiazole formulations and use thereof” (Ares Trading S.A., priority 2004, dated 2010)
